Laboratory results: ChEMBL document CHEMBL1201862, “PubChem BioAssay data set” (2004)
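A five-concentration, 48-hour dose response in 96-well plates underlies each endpoint, interpolated linearly between surrounding concentrations. GI50 = concentration required for 50% inhibition of growth.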 Calls of active or inactive are those of the source. Cut-off read from the data, not from the text of the source: active = GI50 up to about 1.1 µM and inactive = higher.

Assays:
Test in all cases: growth of human tumour cells (NCI), 48 h
CCRF-CEM = system: CCRF-CEM
Hs-578T = system: Hs-578T
HT-29 = system: HT-29
RXF 393 = system: RXF 393
KM12 = system: KM12
UACC-257 = system: UACC-257
MDA-MB-231 = system: MDA-MB-231
SK-OV-3 = system: SK-OV-3
HCT-15 = system: HCT-15
NCI/ADR-RES = system: NCI/ADR-RES
Malme-3M = system: Malme-3M
OVCAR-3 = system: OVCAR-3
A498 = system: A498
SW-620 = system: SW-620
ACHN = system: ACHN
NCI-H522 = system: NCI-H522
SNB-19 = system: SNB-19
T47D = system: T47D
SF-539 = system: SF-539
SR = system: SR
UACC-62 = system: UACC-62
U-251 = system: U-251
NCI-H226 = system: NCI-H226
MOLT-4 = system: MOLT-4
SNB-75 = system: SNB-75
HCC 2998 = system: HCC 2998
HCT-116 = system: HCT-116
LOX IMVI = system: LOX IMVI
PC-3 = system: PC-3
SF-268 = system: SF-268
MDA-N = system: MDA-N
SF-295 = system: SF-295
CAKI-1 = system: CAKI-1
SK-MEL-2 = system: SK-MEL-2
K562 = system: K562
M14 = system: M14
MCF7 = system: MCF7
TK-10 = system: TK-10
HOP-92 = system: HOP-92
NCI-H460 = system: NCI-H460
UO-31 = system: UO-31
SK-MEL-5 = system: SK-MEL-5
BT-549 = system: BT-549
MDA-MB-435 = system: MDA-MB-435
SK-MEL-28 = system: SK-MEL-28
OVCAR-8 = system: OVCAR-8
OVCAR-4 = system: OVCAR-4
HOP-62 = system: HOP-62
NCI-H23 = system: NCI-H23
OVCAR-5 = system: OVCAR-5
DU-145 = system: DU-145
COLO 205 = system: COLO 205
IGROV-1 = system: IGROV-1
RPMI-8226 = system: RPMI-8226
786-0 = system: 786-0
HL-60 = system: HL-60
EKVX = system: EKVX
A549 = system: A549
SN12C = system: SN12C

**Q.** Which results are given for S=C(N/N=C(\c1ccccc1)c1ccccn1)NC1CCCCC1?
**A.** GI50 (CCRF-CEM): 0.322 µM (active); GI50 (Hs-578T): > 35 µM (inactive); GI50 (HT-29): 0.274 µM (active); GI50 (RXF 393): > 100 µM (inactive); GI50 (KM12): 13.1 µM (inactive); GI50 (UACC-257): 2.24 µM (inactive); GI50 (MDA-MB-231): 1.57 µM (inactive); GI50 (SK-OV-3): 11.5 µM (inactive); GI50 (HCT-15): 1.02 µM; GI50 (NCI/ADR-RES): 0.423 µM (active); GI50 (Malme-3M): 1.32 µM (inactive); GI50 (OVCAR-3): 2.75 µM (inactive); GI50 (A498): > 100 µM (inactive); GI50 (SW-620): 1.19 µM (inactive); GI50 (ACHN): 0.571 µM (active); GI50 (NCI-H522): 1.94 µM (inactive); GI50 (SNB-19): 39.7 µM (inactive); GI50 (T47D): 3.48 µM (inactive); GI50 (SF-539): 3.08 µM (inactive); GI50 (SR): > 26.1 µM (inactive); GI50 (UACC-62): > 29.8 µM (inactive); GI50 (U-251): 0.979 µM (active); GI50 (NCI-H226): 3.85 µM (inactive); GI50 (MOLT-4): 0.54 µM (active); GI50 (SNB-75): 65.3 µM (inactive); GI50 (HCC 2998): > 61.4 µM (inactive); GI50 (HCT-116): 0.566 µM (active); GI50 (LOX IMVI): 2.61 µM (inactive); GI50 (PC-3): 1.4 µM (inactive); GI50 (SF-268): 2.66 µM (inactive); GI50 (MDA-N): 78.7 µM (inactive); GI50 (SF-295): 26.5 µM (inactive); GI50 (CAKI-1): 0.834 µM (active); GI50 (SK-MEL-2): > 94.6 µM (inactive); GI50 (K562): 0.5 µM (active); GI50 (M14): 1.16 µM (inactive); GI50 (MCF7): 0.433 µM (active); GI50 (TK-10): 0.849 µM (active); GI50 (HOP-92): > 100 µM (inactive); GI50 (NCI-H460): 3.36 µM (inactive); GI50 (UO-31): 12.9 µM (inactive); GI50 (SK-MEL-5): 13.1 µM (inactive); GI50 (BT-549): 23.4 µM (inactive); GI50 (MDA-MB-435): 31.6 µM (inactive); GI50 (SK-MEL-28): 46.1 µM (inactive); GI50 (OVCAR-8): 0.34 µM (active); GI50 (OVCAR-4): 7.91 µM (inactive); GI50 (HOP-62): 12.2 µM (inactive); GI50 (NCI-H23): 1.6 µM (inactive); GI50 (OVCAR-5): > 88.1 µM (inactive); GI50 (DU-145): 29.3 µM (inactive); GI50 (COLO 205): 0.543 µM (active); GI50 (IGROV-1): 0.31 µM (active); GI50 (RPMI-8226): 2.16 µM (inactive); GI50 (786-0): 18 µM (inactive); GI50 (HL-60): 0.16 µM (active); GI50 (EKVX): 1.4 µM (inactive); GI50 (A549): 13.9 µM (inactive); GI50 (SN12C): 0.804 µM (active)

**Q.** How did the GI50 (CCRF-CEM) turn out when CCOC(=O)/C=C(/C(=O)OCC)n1ccc(=O)n(/C(=C/C(=O)OCC)C(=O)OCC)c1=O was run?
**A.** Its GI50 is 1.37 µM (inactive).

**Q.** And the GI50 (Hs-578T)?
**A.** The GI50 was 20.9 µM (inactive).

**Q.** What about the GI50 (HT-29) of the same compound?
**A.** Its GI50 is 7.74 µM (inactive).

**Q.** And the GI50 (RXF 393)?
**A.** Its GI50 is 3.68 µM (inactive).

**Q.** And the GI50 (KM12)?
**A.** Its GI50 is 17.2 µM (inactive).

**Q.** And the GI50 (UACC-257)?
**A.** Its GI50 is 10.6 µM (inactive).

**Q.** And the GI50 (MDA-MB-231)?
**A.** The GI50 was 16.6 µM (inactive).

**Q.** What about the GI50 (SK-OV-3) of the same compound?
**A.** The GI50 was 23.6 µM (inactive).

**Q.** What about the GI50 (HCT-15) of the same compound?
**A.** The GI50 was 2.19 µM.

**Q.** And the GI50 (NCI/ADR-RES)?
**A.** The GI50 was 22.9 µM (inactive).

**Q.** And the GI50 (Malme-3M)?
**A.** The GI50 was 2.79 µM (inactive).

**Q.** And the GI50 (OVCAR-3)?
**A.** Its GI50 is 6.19 µM (inactive).

**Q.** What about the GI50 (A498) of the same compound?
**A.** The GI50 was 21.8 µM (inactive).

**Q.** And the GI50 (SW-620)?
**A.** Its GI50 is 2.04 µM (inactive).

**Q.** And the GI50 (ACHN)?
**A.** Its GI50 is 3 µM (inactive).

**Q.** What about the GI50 (NCI-H522) of the same compound?
**A.** The GI50 was 1.61 µM (inactive).

**Q.** And the GI50 (SNB-19)?
**A.** The GI50 was 20.3 µM (inactive).

**Q.** And the GI50 (T47D)?
**A.** The GI50 was 4.48 µM (inactive).

**Q.** What about the GI50 (SF-539) of the same compound?
**A.** Its GI50 is 18.1 µM (inactive).

**Q.** And the GI50 (SR)?
**A.** Its GI50 is 5.28 µM (inactive).

**Q.** And the GI50 (UACC-62)?
**A.** The GI50 was 14.8 µM (inactive).

**Q.** What about the GI50 (U-251) of the same compound?
**A.** The GI50 was 14.6 µM (inactive).

**Q.** What about the GI50 (NCI-H226) of the same compound?
**A.** Its GI50 is 8.07 µM (inactive).

**Q.** What about the GI50 (MOLT-4) of the same compound?
**A.** Its GI50 is 1.76 µM (inactive).

**Q.** And the GI50 (SNB-75)?
**A.** Its GI50 is 16.9 µM (inactive).

**Q.** And the GI50 (HCC 2998)?
**A.** The GI50 was 18.4 µM (inactive).

**Q.** And the GI50 (HCT-116)?
**A.** Its GI50 is 2.39 µM (inactive).

**Q.** What about the GI50 (LOX IMVI) of the same compound?
**A.** Its GI50 is 5.19 µM (inactive).

**Q.** What about the GI50 (PC-3) of the same compound?
**A.** The GI50 was 15 µM (inactive).

**Q.** And the GI50 (SF-268)?
**A.** The GI50 was 18.6 µM (inactive).

**Q.** And the GI50 (MDA-N)?
**A.** The GI50 was 13.5 µM (inactive).

**Q.** What about the GI50 (SF-295) of the same compound?
**A.** Its GI50 is 25.6 µM (inactive).

**Q.** What about the GI50 (CAKI-1) of the same compound?
**A.** Its GI50 is 1.66 µM (inactive).

**Q.** What about the GI50 (SK-MEL-2) of the same compound?
**A.** Its GI50 is 12.7 µM (inactive).

**Q.** What about the GI50 (K562) of the same compound?
**A.** Its GI50 is 2.99 µM (inactive).

**Q.** What about the GI50 (M14) of the same compound?
**A.** Its GI50 is 4.98 µM (inactive).

**Q.** What about the GI50 (MCF7) of the same compound?
**A.** The GI50 was 6.4 µM (inactive).

**Q.** What about the GI50 (TK-10) of the same compound?
**A.** The GI50 was 7.08 µM (inactive).

**Q.** What about the GI50 (HOP-92) of the same compound?
**A.** Its GI50 is 2.07 µM (inactive).

**Q.** And the GI50 (NCI-H460)?
**A.** The GI50 was 17.3 µM (inactive).

**Q.** And the GI50 (UO-31)?
**A.** Its GI50 is 15.5 µM (inactive).

**Q.** What about the GI50 (SK-MEL-5) of the same compound?
**A.** Its GI50 is 14.5 µM (inactive).

**Q.** What about the GI50 (BT-549) of the same compound?
**A.** Its GI50 is 15.3 µM (inactive).

**Q.** What about the GI50 (MDA-MB-435) of the same compound?
**A.** The GI50 was 8.34 µM (inactive).

**Q.** And the GI50 (SK-MEL-28)?
**A.** The GI50 was 13.1 µM (inactive).

**Q.** What about the GI50 (OVCAR-8) of the same compound?
**A.** The GI50 was 8.79 µM (inactive).

**Q.** And the GI50 (OVCAR-4)?
**A.** Its GI50 is 9.93 µM (inactive).

**Q.** And the GI50 (HOP-62)?
**A.** The GI50 was 25.9 µM (inactive).

**Q.** What about the GI50 (NCI-H23) of the same compound?
**A.** The GI50 was 16 µM (inactive).

**Q.** And the GI50 (OVCAR-5)?
**A.** Its GI50 is 17.1 µM (inactive).

**Q.** And the GI50 (DU-145)?
**A.** The GI50 was 18.6 µM (inactive).

**Q.** What about the GI50 (COLO 205) of the same compound?
**A.** Its GI50 is 1.95 µM (inactive).

**Q.** And the GI50 (IGROV-1)?
**A.** Its GI50 is 15.9 µM (inactive).

**Q.** What about the GI50 (RPMI-8226) of the same compound?
**A.** The GI50 was 2.7 µM (inactive).

**Q.** And the GI50 (786-0)?
**A.** The GI50 was 2.4 µM (inactive).

**Q.** What about the GI50 (HL-60) of the same compound?
**A.** Its GI50 is 0.859 µM (active).

**Q.** And the GI50 (EKVX)?
**A.** The GI50 was 11.4 µM (inactive).

**Q.** And the GI50 (A549)?
**A.** Its GI50 is 17.3 µM (inactive).

**Q.** And the GI50 (SN12C)?
**A.** The GI50 was 4.43 µM (inactive).
